Key:
rP2X7R = molecular target: T1, rP2X7R (Rattus norvegicus, UniProt Q64663); assay: BzATP-induced Ca2+ responses in HEK293 cells expressing rP2X7R (FlexStation, Fura-2); type: cell-based; details: 300 μM BzATP
T1 construct: expressed in transfected cells
T1 sequence (Q64663 1-595): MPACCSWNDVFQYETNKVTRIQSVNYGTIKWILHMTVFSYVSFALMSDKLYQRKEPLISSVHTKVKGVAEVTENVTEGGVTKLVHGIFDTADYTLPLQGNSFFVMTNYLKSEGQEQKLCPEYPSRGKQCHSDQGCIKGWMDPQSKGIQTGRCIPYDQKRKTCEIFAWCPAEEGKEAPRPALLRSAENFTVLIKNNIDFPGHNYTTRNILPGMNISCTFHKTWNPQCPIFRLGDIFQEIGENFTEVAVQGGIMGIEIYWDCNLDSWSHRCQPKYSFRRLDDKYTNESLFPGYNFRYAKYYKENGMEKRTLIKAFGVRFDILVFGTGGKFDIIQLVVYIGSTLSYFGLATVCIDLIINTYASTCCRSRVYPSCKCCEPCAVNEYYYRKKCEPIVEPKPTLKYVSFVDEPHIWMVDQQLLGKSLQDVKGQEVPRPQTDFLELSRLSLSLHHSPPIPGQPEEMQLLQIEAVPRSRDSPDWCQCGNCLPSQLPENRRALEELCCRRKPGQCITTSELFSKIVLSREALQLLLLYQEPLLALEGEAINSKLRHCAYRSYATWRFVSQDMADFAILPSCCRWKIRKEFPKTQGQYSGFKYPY
From the text: (§1) Human embryonic kidney (HEK) 293 cells stably expressing C-terminally EE-tagged human or rat P2X7R [42], [34], human P2X4R [15] and rat P2X3R [28] were generated in previous studies. A stable HEK293 cell line expressing C-terminally His-tagged human P2X7R was generated in this study and there was no difference in the experimental results using EE-tagged and His-tagged human P2X7R. These cells were maintained in Dulbecco’s Modified Eagle Medium (Life Technologies) supplemented with 10% foetal bovine serum and […] G418 in a tissue culture incubator at 37°C and 5% CO2 under humidified conditions. Cells were cultured in T25 flasks and split (every 3–4 days) once confluent.
(§2) FlexStation II and III (Molecular Devices) were used to measure intracellular Ca^2+ concentrations ([Ca^2+]i). Human or rat P2X7R-expressing HEK293 cells were plated in poly-D-lysine-coated 96-well plates (Molecular Devices) with 50,000 cells per well 24 h prior to use. […] Cells were excited at 340 nm and 380 nm alternatively and the emission at 510 nm recorded using a FlexStation. The ratio of fluorescence intensity (F340/F380) was used to indicate the [Ca^2+]i. The basal [Ca^2+]i was recorded for 60 s prior to the exposure to agonist and recording was continued for a further 120 s. […] The maximal changes in F340/F380 (ΔF340/380) were used for quantitative analysis.

hP2X7R [1] = molecular target: T2, hP2X7R (Homo sapiens, UniProt Q99572); assay: BzATP-induced Ca2+ responses in HEK293 cells expressing hP2X7R (FlexStation, Fura-2); type: cell-based; details: 300 μM BzATP
T2 construct: expressed in transfected cells
T2 sequence (Q99572 1-595): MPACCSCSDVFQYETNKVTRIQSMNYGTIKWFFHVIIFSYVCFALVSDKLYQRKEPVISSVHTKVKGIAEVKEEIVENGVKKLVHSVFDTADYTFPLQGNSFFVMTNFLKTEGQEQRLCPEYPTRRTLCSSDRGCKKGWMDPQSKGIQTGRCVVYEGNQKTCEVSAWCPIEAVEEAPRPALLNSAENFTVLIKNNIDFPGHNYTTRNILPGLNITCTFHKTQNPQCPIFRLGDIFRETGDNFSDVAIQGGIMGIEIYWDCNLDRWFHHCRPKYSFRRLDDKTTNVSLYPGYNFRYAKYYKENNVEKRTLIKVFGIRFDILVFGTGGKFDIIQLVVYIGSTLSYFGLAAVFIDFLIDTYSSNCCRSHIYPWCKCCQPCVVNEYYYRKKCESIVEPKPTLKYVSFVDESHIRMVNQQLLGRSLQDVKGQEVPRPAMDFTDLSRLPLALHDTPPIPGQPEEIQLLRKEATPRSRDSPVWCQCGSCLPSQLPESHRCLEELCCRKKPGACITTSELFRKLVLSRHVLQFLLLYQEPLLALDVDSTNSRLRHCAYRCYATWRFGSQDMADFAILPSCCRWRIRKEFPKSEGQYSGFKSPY
From the text: as §1
as §2, with “analysis. […]” for “analysis.”

hP2X7R [2] = molecular target: T2, hP2X7R; details: known hP2X7R antagonists; cited from earlier work

inhibition of BzATP-induced Ca^2+ responses (rP2X7R) (rP2X7R; 200 nM AZ11645373 (Fig. 1 legend), compared with BBG) | inhibition of BzATP-induced Ca^2+ responses (hP2X7R) (hP2X7R [1]; 200 nM AZ11645373 (Fig. 1 legend)) [%] | inhibition of BzATP-induced Ca^2+ responses (rP2X7R) (rP2X7R; compound at 10 μM) | inhibition at 10 µM (hP2X7R [1]; HEK293, compound at 10 μM, read-out: inhibition of BzATP-induced Ca^2+ responses (hP2X7R)) [%] | SMILES | predicted energy binding score (hP2X7R [2]) [kcal/mol]
far less effective | 81.9 ± 5 | – | – | O=C1CSC(=O)N1C(CCc1ccncc1)COc1ccc(-c2cccc([N+](=O)[O-])c2)cc1 (stereo not shown) [AZ11645373] | -10.8
– | – | strongly inhibited | 71.5 ± 5 | CCOc1ccc(Nc2ccc(/C(=C3C=C/C(=[N+](/CC)Cc4cccc(S(=O)(=O)[O-])c4)C=C/3C)c3ccc(N(CC)Cc4cccc(S(=O)(=O)O)c4)cc3C)cc2)cc1 [BBG, brilliant blue G] | –
– | – | – | – | CN([C@@H](Cc1ccc(OS(=O)(=O)c2cccc3cnccc23)cc1)C(=O)N1CCN(c2ccccc2)CC1)S(=O)(=O)c1cccc2cnccc12 [KN-62] | -5.2
– | – | – | – | C[S+]([O-])c1ccc(-c2nc(-c3ccncc3)c(-c3ccc(F)cc3)[nH]2)cc1 (stereo not shown) [SB203580] | -8.75
